Reference: patent US12606561B2, “Substituted pyrazolo[1,5-a][1,3,5]triazines as CDK inhibitors” (QURIENT CO., LTD., priority 2018, dated 2026)

How the values were obtained:
A2780 = A2780 viability assay (CellTiter-Glo, 72 hours); type: cell-based; conditions: Homo sapiens; A2780 cells
In short: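 Cells grown in RPMI-1640 with 10% FBS were seeded at 1×10^4/well (MV4-11), 5×10^3 (OVCAR-3) or 1×10^3 (A2780), then dosed 24 h later with compound at 0.0015 uM to 10 uM, DMSO <0.1%. Viability was read by CellTiter-Glo luminescence after 72 h at 37° C, in duplicate.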

CDK7/Cyclin H/MNAT1 = molecular target: T1, CDK7/Cyclin H/MNAT1 (Homo sapiens, UniProt P50613); test: Enzymatic assay for CDK7 (LANCE Ultra kinase assay, FRET based); type: biochemical; conditions: for IC50: ATP at Km
T1 construct: purchased Invitrogen PR6749B
T1 sequence (P50613 whole entry): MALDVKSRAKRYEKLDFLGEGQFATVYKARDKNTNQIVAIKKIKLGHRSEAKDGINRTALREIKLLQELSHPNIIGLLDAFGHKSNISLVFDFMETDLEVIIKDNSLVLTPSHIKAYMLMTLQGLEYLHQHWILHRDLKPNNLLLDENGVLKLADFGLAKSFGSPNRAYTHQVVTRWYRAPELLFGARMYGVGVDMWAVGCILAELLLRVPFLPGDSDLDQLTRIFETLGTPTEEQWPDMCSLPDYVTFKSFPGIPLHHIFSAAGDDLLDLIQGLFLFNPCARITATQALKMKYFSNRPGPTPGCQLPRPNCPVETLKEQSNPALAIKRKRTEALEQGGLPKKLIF
T1 sequence (P51946 whole entry partner): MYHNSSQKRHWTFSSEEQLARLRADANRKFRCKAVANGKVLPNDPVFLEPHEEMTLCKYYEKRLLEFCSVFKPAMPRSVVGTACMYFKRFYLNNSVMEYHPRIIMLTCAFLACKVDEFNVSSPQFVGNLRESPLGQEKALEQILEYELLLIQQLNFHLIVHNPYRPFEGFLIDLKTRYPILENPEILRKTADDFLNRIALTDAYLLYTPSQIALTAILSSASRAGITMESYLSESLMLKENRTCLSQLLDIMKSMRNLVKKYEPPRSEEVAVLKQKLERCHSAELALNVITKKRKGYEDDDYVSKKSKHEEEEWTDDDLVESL
T1 sequence (P51948 whole entry partner): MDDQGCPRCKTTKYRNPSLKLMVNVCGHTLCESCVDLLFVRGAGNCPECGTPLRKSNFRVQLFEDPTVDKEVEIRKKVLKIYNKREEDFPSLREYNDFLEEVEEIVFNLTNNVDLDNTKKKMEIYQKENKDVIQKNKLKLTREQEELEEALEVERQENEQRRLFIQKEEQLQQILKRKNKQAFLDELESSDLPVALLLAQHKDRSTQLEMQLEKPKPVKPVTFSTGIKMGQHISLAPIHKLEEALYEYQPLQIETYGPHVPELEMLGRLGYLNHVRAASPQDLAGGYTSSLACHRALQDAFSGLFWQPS
In short: (§1)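 Inhibition of purified CDK/cyclin complexes was measured with ATP at its Km, using a ULight-labeled peptide substrate. Substrate phosphorylation was detected by FRET with a Europium-labeled anti-phospho-antibody.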

CDK2/Cyclin A = molecular target: T2, CDK2/Cyclin A (Homo sapiens, UniProt P24941); test: Enzymatic assay for CDK2 (LANCE Ultra kinase assay, FRET based); type: biochemical; conditions: ATP at Km
T2 construct: purchased Invitrogen PV6290
In short: (§2)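 Inhibition was measured at ATP Km with 68 nM ULight-MBP peptide and CDK2/Cyclin A ([…]) or CDK5/p25 ([…]), using 8-dose 4-fold compound dilutions from DMSO. Kinase reaction ran 60 min at 23° C, then Eu anti-phospho-MBP plus EDTA were added for another 60 min before the fluorescence read.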

CDK1/Cyclin B = molecular target: T3, CDK1/Cyclin B (Homo sapiens, UniProt P06493); test: Enzymatic assay for CDK1 (LANCE Ultra kinase assay, FRET based); type: biochemical; conditions: ATP at Km; read-out: CDK1 enzymatic activity IC50
T3 construct: purchased Invitrogen PR4768C
T3 sequence (P06493 whole entry): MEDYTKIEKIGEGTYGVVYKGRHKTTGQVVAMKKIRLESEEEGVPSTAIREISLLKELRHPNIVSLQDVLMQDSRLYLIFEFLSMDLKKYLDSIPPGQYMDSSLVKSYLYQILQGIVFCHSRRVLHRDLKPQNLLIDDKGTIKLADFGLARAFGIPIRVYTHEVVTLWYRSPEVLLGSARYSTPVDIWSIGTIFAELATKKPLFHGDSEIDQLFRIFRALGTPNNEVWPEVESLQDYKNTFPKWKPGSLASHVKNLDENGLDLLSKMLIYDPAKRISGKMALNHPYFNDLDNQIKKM
T3 sequence (P14635 whole entry partner): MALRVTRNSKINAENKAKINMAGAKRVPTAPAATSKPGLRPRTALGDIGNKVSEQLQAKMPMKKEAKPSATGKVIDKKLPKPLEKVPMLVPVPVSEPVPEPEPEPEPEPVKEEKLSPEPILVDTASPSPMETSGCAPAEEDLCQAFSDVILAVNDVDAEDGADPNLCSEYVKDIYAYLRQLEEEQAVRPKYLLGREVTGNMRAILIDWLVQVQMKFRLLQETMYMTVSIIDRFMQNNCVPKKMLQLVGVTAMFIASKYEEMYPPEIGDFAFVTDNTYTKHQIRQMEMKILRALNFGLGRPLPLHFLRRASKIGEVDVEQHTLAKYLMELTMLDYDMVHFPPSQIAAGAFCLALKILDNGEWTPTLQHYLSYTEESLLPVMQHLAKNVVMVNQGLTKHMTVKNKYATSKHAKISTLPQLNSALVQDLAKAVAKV
In short: as §1

OVCAR-3 = OVCAR-3 viability assay (CellTiter-Glo, 72 hours); type: cell-based; conditions: Homo sapiens; OVCAR-3 cells
Protocol: Human […] cell line, MV4-11_(ATCC, Cat #CRL-9591), NSCLC (Non-small cell lung cancer) cell line H460 (ATCC, Cat #HTB-177), A2780 (ECACC, Cat #93112519) and OVCAR-3(ATCC, Cat #HTB-161) were obtained from ATCC. Cells were grown in RPMI-1640 media (Invitrogen, Cat #22400-089) supplemented with 10% FBS (Invitrogen, Cat #10099141) and 1% penicillin/streptomycin (Invitrogen, Cat #15070063) and cultured at 37° C., 5% CO2 in a humidified chamber. All cell lines were routinely tested for mycoplasma.
To effect of the CDK7 inhibitor to inhibit the growth of target cancer cells, viability assay were conducted a 72 hour time period. Briefly, the candidate cell line was plated in 96 well plate at the following density of cells respectively. 1×10^4 cells/well for MV4-11, 5×10^3 for H460 and OVCAR-3, and 1×10^3 for A2780. After 24 hours, the cells were treated with various concentrations of the compound (ranging from 0.0015 uM to 10 uM). DMSO solvent without compound served as a control and final DMSO concentration lest than 0.1%. After 72 hours of incubation at 37° C., 5% CO2 incubator, cells were analyzed for the viability using the CellTiter-Glo Luminescent Cell Viability Assay (Promega, Cat #G7570). All viability assays were performed in duplicate and Luminescence was read using an Envision (Perkin Elmer, USA). Data was analyzed using XLfit software.

CDK5/p25 = molecular target: T4, CDK5/p25 (Homo sapiens, UniProt Q00535); test: Enzymatic assay for CDK5 (LANCE Ultra kinase assay, FRET based); type: biochemical; conditions: ATP at Km
T4 construct: purchased Invitrogen PR8543B
T4 sequence (Q00535 whole entry): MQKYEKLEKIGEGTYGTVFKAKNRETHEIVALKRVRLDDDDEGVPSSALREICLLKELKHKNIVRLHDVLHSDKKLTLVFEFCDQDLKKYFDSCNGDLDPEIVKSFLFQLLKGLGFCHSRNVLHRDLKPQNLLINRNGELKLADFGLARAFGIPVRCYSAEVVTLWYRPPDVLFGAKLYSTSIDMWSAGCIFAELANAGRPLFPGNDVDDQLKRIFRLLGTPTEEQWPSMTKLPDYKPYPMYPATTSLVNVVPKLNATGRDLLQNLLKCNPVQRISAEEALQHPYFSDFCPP
T4 sequence (Q15078 99-307 partner limits assumed): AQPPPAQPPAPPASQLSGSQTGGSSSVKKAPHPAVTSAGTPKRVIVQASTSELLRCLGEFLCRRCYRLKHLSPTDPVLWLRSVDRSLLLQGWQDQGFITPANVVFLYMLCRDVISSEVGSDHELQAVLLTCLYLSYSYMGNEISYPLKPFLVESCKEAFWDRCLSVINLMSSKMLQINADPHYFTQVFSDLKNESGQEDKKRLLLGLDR
In short: as §2

Row | IC50 (A2780) | IC50 (CDK7/Cyclin H/MNAT1) | CDK1/CDK7: Selectivity of CDK7 inhibition over CDK1 inhibition (CDK7/Cyclin H/MNAT1) | CDK2/CDK7: Selectivity of CDK7 inhibition over CDK2 inhibition (CDK7/Cyclin H/MNAT1) | CDK5/CDK7: Selectivity of CDK7 inhibition over CDK5 inhibition (CDK7/Cyclin H/MNAT1) | IC50 (CDK2/Cyclin A) | IC50 (CDK1/Cyclin B) | IC50 (OVCAR-3) | IC50 (CDK5/p25) | SMILES
1 | < 1000 nM | 100 to 1000 nM | B (B indicates 50 < [fold] ≤ 500) | B (B indicates 50 < [fold] ≤ 500) | B (B indicates 50 < [fold] ≤ 500) | > 1000 nM | > 1000 nM | < 1000 nM | > 1000 nM | C=C(F)C(=O)Nc1ccc2c(-c3ccccc3CNc3nc(N4CCC(OC)CC4)nc4c(C(C)C)cnn34)nccc2c1 [Compound 88]
2 | 1000 to 10000 nM | > 1000 nM | C (C indicates [fold] ≤ 50) | C (C indicates [fold] ≤ 50) | C (C indicates [fold] ≤ 50) | > 1000 nM | > 1000 nM | 1000 to 10000 nM | > 1000 nM | C=C(F)C(=O)Nc1ccc2c(-c3ccccc3CNc3nc(N4CCC(OC(C)C)CC4)nc4c(C(C)C)cnn34)nccc2c1 [Compound 89]
3 | < 1000 nM | 100 to 1000 nM | B (B indicates 50 < [fold] ≤ 500) | B (B indicates 50 < [fold] ≤ 500) | B (B indicates 50 < [fold] ≤ 500) | > 1000 nM | > 1000 nM | < 1000 nM | > 1000 nM | C=C(F)C(=O)Nc1ccc2c(-c3ccccc3CNc3nc(N4CCC(F)CC4)nc4c(C(C)C)cnn34)nccc2c1 [Compound 90]
4 | < 1000 nM | 100 to 1000 nM | B (B indicates 50 < [fold] ≤ 500) | B (B indicates 50 < [fold] ≤ 500) | B (B indicates 50 < [fold] ≤ 500) | > 1000 nM | > 1000 nM | < 1000 nM | > 1000 nM | C=C(F)C(=O)Nc1ccc2c(-c3ccccc3CNc3cc(N4CCC(OC)CC4)nc4c(C(C)C)cnn34)nccc2c1 [Compound 91]
5 | < 1000 nM | 100 to 1000 nM | B (B indicates 50 < [fold] ≤ 500) | B (B indicates 50 < [fold] ≤ 500) | B (B indicates 50 < [fold] ≤ 500) | > 1000 nM | > 1000 nM | < 1000 nM | > 1000 nM | C=C(F)C(=O)Nc1ccc2c(-c3ccccc3CNc3nc(NC4CCOC4)nc4c(C(C)C)cnn34)nccc2c1 (stereo not drawn) [Compound 92]
6 | < 1000 nM | > 1000 nM | C (C indicates [fold] ≤ 50) | C (C indicates [fold] ≤ 50) | C (C indicates [fold] ≤ 50) | > 1000 nM | > 1000 nM | 1000 to 10000 nM | > 1000 nM | C=C(F)C(=O)Nc1cccc2ccc(-c3cccc(C)c3CNc3nc(N4CCC(OC)CC4)nc4c(C(C)C)cnn34)nc12 [Compound 93]
7 | < 1000 nM | < 100 nM | A (A indicates [fold] > 500) | A (A indicates [fold] > 500) | A (A indicates [fold] > 500) | > 1000 nM | > 1000 nM | < 1000 nM | > 1000 nM | C=C(F)C(=O)Nc1ccc2c(-c3ccccc3CNc3cc(NCC4CNCCO4)nc4c(C(C)C)cnn34)nccc2c1 (stereo not drawn) [Compound 94]
8 | < 1000 nM | < 100 nM | A (A indicates [fold] > 500) | A (A indicates [fold] > 500) | A (A indicates [fold] > 500) | > 1000 nM | > 1000 nM | < 1000 nM | > 1000 nM | C=CC(=O)Nc1ccc2c(-c3ccccc3CNc3nc(N[C@H]4CC[C@H](OC)CC4)nc4c(C(C)C)cnn34)nccc2c1 [Compound 95]
9 | < 1000 nM | 100 to 1000 nM | B (B indicates 50 < [fold] ≤ 500) | B (B indicates 50 < [fold] ≤ 500) | B (B indicates 50 < [fold] ≤ 500) | > 1000 nM | > 1000 nM | < 1000 nM | > 1000 nM | C=C(F)C(=O)Nc1ccc2c(-c3ccccc3CNc3nc(N[C@H]4CC[C@@H](OC)C4)nc4c(C(C)C)cnn34)nccc2c1 [Compound 96]
10 | < 1000 nM | 100 to 1000 nM | B (B indicates 50 < [fold] ≤ 500) | B (B indicates 50 < [fold] ≤ 500) | B (B indicates 50 < [fold] ≤ 500) | > 1000 nM | > 1000 nM | < 1000 nM | > 1000 nM | C=C(F)C(=O)Nc1ccc2c(-c3ccccc3CNc3nc(NC4CC(OC)C4)nc4c(C(C)C)cnn34)nccc2c1 (stereo not drawn) [Compound 99]
11 | 1000 to 10000 nM | > 1000 nM | C (C indicates [fold] ≤ 50) | C (C indicates [fold] ≤ 50) | C (C indicates [fold] ≤ 50) | > 1000 nM | > 1000 nM | 1000 to 10000 nM | > 1000 nM | C=C(F)C(=O)Nc1ccc2c(-c3ccccc3CNc3nc(N4CCCC(OC)CC4)nc4c(C(C)C)cnn34)nccc2c1 (stereo not drawn) [Compound 100]
12 | < 1000 nM | 100 to 1000 nM | B (B indicates 50 < [fold] ≤ 500) | B (B indicates 50 < [fold] ≤ 500) | B (B indicates 50 < [fold] ≤ 500) | > 1000 nM | > 1000 nM | < 1000 nM | > 1000 nM | CC(C)c1cnn2c(NCc3ccccc3-c3nccc4cc(NC(=O)/C=C/CN(C)C)ccc34)nc(N3CCc4sccc4C3)nc12 [Compound 101]
13 | < 1000 nM | 100 to 1000 nM | B (B indicates 50 < [fold] ≤ 500) | B (B indicates 50 < [fold] ≤ 500) | B (B indicates 50 < [fold] ≤ 500) | > 1000 nM | > 1000 nM | < 1000 nM | > 1000 nM | CC(C)c1cnn2c(NCc3ccccc3-c3nccc4cc(NC(=O)/C=C/CN(C)C)ccc34)nc(N3C[C@H]4CC[C@@H](C3)O4)nc12 [Compound 102]
14 | < 1000 nM | 100 to 1000 nM | B (B indicates 50 < [fold] ≤ 500) | B (B indicates 50 < [fold] ≤ 500) | B (B indicates 50 < [fold] ≤ 500) | > 1000 nM | > 1000 nM | < 1000 nM | > 1000 nM | CC(C)c1cnn2c(NCc3ccccc3-c3nccc4cc(NC(=O)/C=C/CN(C)C)ccc34)nc(N3CC4COCC4C3)nc12 (stereo not drawn) [Compound 104]

Row | SMILES | IC50 (A2780) | IC50 (CDK7/Cyclin H/MNAT1) | CDK1/CDK7: Selectivity of CDK7 inhibition over CDK1 inhibition (CDK7/Cyclin H/MNAT1) | CDK2/CDK7: Selectivity of CDK7 inhibition over CDK2 inhibition (CDK7/Cyclin H/MNAT1) | CDK5/CDK7: Selectivity of CDK7 inhibition over CDK5 inhibition (CDK7/Cyclin H/MNAT1) | IC50 (CDK2/Cyclin A) | IC50 (CDK1/Cyclin B) | IC50 (OVCAR-3) | IC50 (CDK5/p25)
15 | COC1CC2CCC(C1)N2c1nc(NCc2ccccc2-c2nccc3cc(NC(=O)/C=C/CN(C)C)ccc23)n2ncc(C(C)C)c2n1 (stereo not drawn) [Compound 103] | < 1000 nM | < 100 nM | B (B indicates 50 < [fold] ≤ 500) | B (B indicates 50 < [fold] ≤ 500) | B (B indicates 50 < [fold] ≤ 500) | > 1000 nM | > 1000 nM | < 1000 nM | > 1000 nM
